Our source for the IC50, EC50 and melting point values is US20230391756A1, “NEW COMPOUND” (JANSSEN PHARMACEUTICA NV, priority 2020, published 2023).

For series [1], the system named is NLRP3 inflammasome pathway (IL-1β). Put plainly: PBMC assay: IL-1β release after LPS stimulation. The series is classed as cell-based. The note with it: human PBMCs, 100 ng/ml LPS for 6 hrs, MSD.
The subject of another series is TNF. Put plainly: PBMC assay: TNF cytokine level after LPS stimulation. The series is classed as cell-based. The note with it: human PBMCs, 100 ng/ml LPS for 6 hrs, MSD, read-out: TNFα EC50. The gist of the method: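 Thawed healthy-donor human PBMCs, 7.5×10^4 cells per well, preincubated 30 min at 37° C, then stimulated with 100 ng/ml LPS (final) for 6 hrs. Supernatant TNF (and IL-1β) measured by MSD immunoassay.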

What is called IC50 is the concentration that inhibits the measured activity by half. A higher IC50 goes with lower potency. A word on the EC50: it is the concentration at which the effect is half-maximal. In general, melting point refers to the temperature of the solid-liquid transition. `O=C(Cc1nn(C2CC2)c2cc(C(F)(F)F)ccc2c1=O)Nc1ccc2nncn2n1` [F-139]: the melting point amounted to 215.7 °C. For the same compound, the IC50 in series [1] amounted to 0.21 µM. Moreover, the EC50 in the series on TNF was above 20 µM.

Turning to `Cc1ccc2nc(NC(=O)Cc3nn(C(C)C)c4cc(C(F)(F)F)ccc4c3=O)n(C)c2c1` [F-95], the melting point was determined as 217.4 °C. The compound also displayed an IC50 in series [1] above 20 µM. The EC50 with TNF was above 20 µM.

Take `CCn1nc(CC(=O)Nc2ccc3nncn3c2)c(=O)c2ccc(Cl)cc21` [F-27]: the melting point is 254.3 °C. Moreover, the IC50 in series [1] was 0.62 µM. Moreover, in the series on TNF, the EC50 was above 20 µM.

In turn, `CC(C)n1nc(CC(=O)N[C@H]2C[C@@H](C(C)(C)O)C2)c(=O)c2ccc(C(F)(F)F)cc21` [F-10] registered a melting point of 181 °C. Further, in series [1], half-maximal inhibition (IC50) required 11.6 µM. The EC50 in the series with TNF was above 20 µM.
